Experimental data taken from patent US20230416225A1, “DIAMINOPYRIMIDINE CARBOXAMIDE INHIBITORS OF HPK1” (MERCK SHARP & DOHME LLC, priority 2020, published 2023).

Target: T1, Human HPK1, catalytic domain (Homo sapiens, UniProt Q92918)
T1 construct: purchased Carna
T1 sequence (Q92918 1-346): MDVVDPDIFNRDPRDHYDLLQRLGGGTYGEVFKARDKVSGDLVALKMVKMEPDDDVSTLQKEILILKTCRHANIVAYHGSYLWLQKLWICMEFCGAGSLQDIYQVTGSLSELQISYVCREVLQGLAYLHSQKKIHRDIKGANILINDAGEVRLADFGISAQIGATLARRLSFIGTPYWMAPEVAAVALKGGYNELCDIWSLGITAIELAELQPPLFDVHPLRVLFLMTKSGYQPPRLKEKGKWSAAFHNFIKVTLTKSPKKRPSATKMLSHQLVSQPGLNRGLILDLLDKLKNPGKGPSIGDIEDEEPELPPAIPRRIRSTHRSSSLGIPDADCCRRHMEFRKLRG
Experiment: HPK1-SLP76 TR-FRET assay
Type: biochemical
Details: 75 pM HPK1, 10 uM ATP, 10 nM SLP76, 30 min compound pre-incubation

Row | IC50 [nM] | SMILES
1 | 0.14 | COc1cc2c(cc1Nc1ncc(C(N)=O)c(NC3C[C@@H]4CC[C@H]3C4)n1)CN(C)CC2 (stereo partly drawn) [Example 26-14, 4-{[(1S,4R)-bicyclo[2.2.1]heptan-2-yl]amino}-2-[(6-methoxy-2-methyl-1,2,3,4-tetrahydroisoquinolin-7-yl)amino]pyrimidine-5-carboxamide]
2 | 7.77 | CNC(=O)c1cccc(Nc2nc(Nc3cc4c(cc3OC)CCN(C)C4)ncc2C(N)=O)c1 [Example 7-38, 2-[(6-methoxy-2-methyl-1,2,3-tetrahydroisoquinolin-7-yl)amino]-4-{[3-(methylcarbamoyl)phenyl]amino} pyrimidine-5-carboxamide]
3 | 5.65 | COc1cc2c(cc1Nc1ncc(C(N)=O)c(Nc3c(F)cccc3C#N)n1)CN(C)CC2 [Example 4-9]
4 | 38.7 | COc1c(F)cc(Nc2ncc(C(N)=O)c(Nc3cccc4c3CCNC4=O)n2)cc1F [Example 25-40, 2-[(3,5-difluoro-4-methoxyphenyl)amino]-4-[(1-oxo-1,2,3,4-tetrahydroisoquinolin-5-yl)amino]pyrimidine-5-carboxamide]
5 | 0.28 | CC(C1CC1)n1cc(Nc2ncc(C(N)=O)c(Nc3cccc4c3CCNC4=O)n2)cn1 (stereo not shown) [Example 7-46, 2-{[1-(1-cyclopropylethyl)-1H-pyrazol-4-yl]amino}-4-[(1-oxo-1,2,3,4-tetrahydroisoquinolin-5-yl)amino]pyrimidine-5-carboxamide]
6 | 217 | NC(=O)c1cnc(Nc2ccc(F)cc2)nc1Nc1cccc2c1CCNC2=O [Example 25-5, 2-[(4-fluorophenyl)amino]-4-[(1-oxo-1,2,3,4-tetrahydroisoquinolin-5-yl)amino]pyrimidine-5-carboxamide]
7 | 0.34 | COc1cc2c(cc1Nc1ncc(C(N)=O)c(Nc3ccccc3C#N)n1)CN(C)CC2 [Example 7-49, 4-[(2-cyanophenyl)amino]-2-[(6-methoxy-2-methyl-1,2,3,4-tetrahydroisoquinolin-7-yl)amino]pyrimidine-5-carboxamide]
8 | 0.13 | COc1cc2c(cc1Nc1ncc(C(N)=O)c(Nc3ccccc3SC(F)(F)F)n1)CN(C)CC2 [Example 7-113, 2-[(6-methoxy-2-methyl-1,2,3,4-tetrahydroisoquinolin-7-yl)amino]-4-({2-[(trifluoromethyl)sulfanyl]phenyl}amino)pyrimidine-5-carobxamide]
9 | 6.05 | COc1cc2c(cc1Nc1ncc(C(N)=O)c(NCc3ccccc3)n1)CN(C)CC2 [Example 26-36, 4-(benzylamino)-2-[(6-methoxy-2-methyl-1,2,3,4-tetrahydroisoquinolin-7-yl)amino]pyrimidine-5-carboxamide]
10 | 2.4 | COc1cc2c(cc1Nc1ncc(C(N)=O)c(Nc3ccc(F)c(F)c3F)n1)CN(C)CC2 [Example 4-13, 2-[(6-methoxy-2-methyl-1,2,3,4-tetrahydroisoquinolin-7-yl)amino]-4-[(2,3,4-trifluorophenyl)amino] pyrimidine-5-carboxamide]
11 | 881 | NC(=O)c1cnc(Nc2ccccc2OC(F)F)nc1Nc1cccc2c1CCNC2=O [Example 25-27, 2-{[2-(difluoromethoxy)phenyl]amino}-4-[(1-oxo-1,2,3,4-tetrahydroisoquinolin-5-yl)amino]pyrimidine-5-carboxamide]
12 | 1.52 | COc1cc2c(cc1Nc1ncc(C(N)=O)c(Nc3ccc(Br)cc3)n1)CN(C)CC2 [Example 7-72, 4-[(4-bromophenyl)amino]-2-[(6-methoxy-2-methyl-1,2,3,4-tetrahydroisoquinolin-7-yl)amino]pyrimidine-5-carboxamide]
13 | 106 | COc1cc2c(cc1Nc1ncc(C(N)=O)c(NC3CC4CCC(C3)N4)n1)CN(C)CC2 (stereo not shown) [Example 26-27, 4-[(8-azabicyclo[3.2.1]octan-3-yl)amino]-2-[(6-methoxy-2-methyl-1,2,3,4-tetrahydroisoquinolin-7-yl)amino]pyrimidine-5-carboxamide]
